According to PubChem BioAssay (NCI):
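How tested: cells in 96-well plates exposed to compound for 48 hours at five concentrations. GI50 = concentration required for 50% inhibition of growth. TGI: total growth inhibition.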

How the values were obtained:
Assay in all cases: NCI-60 cell line screen, 48 h
[1] = tested on: OVCAR-4 ovarian
[2] = tested on: SW-620 colon
[3] = tested on: TK-10 renal
[4] = tested on: SK-MEL-2 melanoma
[5] = tested on: SF-539 CNS
[6] = tested on: SR leukemia
[7] = tested on: NCI/ADR-RES ovarian
[8] = tested on: MALME-3M melanoma
[9] = tested on: RPMI-8226 leukemia
[10] = tested on: UACC-62 melanoma
[11] = tested on: SK-MEL-28 melanoma
[12] = tested on: SK-MEL-5 melanoma
[13] = tested on: PC-3 prostate
[14] = tested on: COLO 205 colon
[15] = tested on: MCF7 breast
[16] = tested on: A498 renal
[17] = tested on: T-47D breast
[18] = tested on: LOX IMVI melanoma
[19] = tested on: SF-295 CNS
[20] = tested on: HCT-15 colon
[21] = tested on: SF-268 CNS
[22] = tested on: KM12 colon
[23] = tested on: HCT-116 colon
[24] = tested on: U251 CNS
[25] = tested on: HL-60(TB) leukemia
[26] = tested on: BT-549 breast
[27] = tested on: OVCAR-3 ovarian
[28] = tested on: K-562 leukemia
[29] = tested on: UO-31 renal
[30] = tested on: SN12C renal
[31] = tested on: CCRF-CEM leukemia
[32] = tested on: 786-0 renal
[33] = tested on: MDA-MB-435
[34] = tested on: IGROV1 ovarian
[35] = tested on: UACC-257 melanoma
[36] = tested on: NCI-H226 lung
[37] = tested on: HT29 colon
[38] = tested on: SK-OV-3 ovarian
[39] = tested on: MDA-MB-231 breast
[40] = tested on: A549 NSCLC
[41] = tested on: SNB-19 CNS
[42] = tested on: M14 melanoma
[43] = tested on: OVCAR-8 ovarian
[44] = tested on: DU-145 prostate
[45] = tested on: NCI-H460 lung
[46] = tested on: HOP-62 NSCLC
[47] = tested on: HOP-92 NSCLC
[48] = tested on: NCI-H522 lung
[49] = tested on: RXF 393 renal
[50] = tested on: SNB-75 CNS
[51] = tested on: HCC-2998 colon
[52] = tested on: OVCAR-5 ovarian
[53] = tested on: HS 578T breast
[54] = tested on: ACHN renal
[55] = tested on: CAKI-1 renal
[56] = tested on: MDA-N
[57] = tested on: NCI-H23 lung
[58] = tested on: EKVX NSCLC
[59] = tested on: MOLT-4 leukemia

O=C(O)CCC1(C(=O)O)CCC(=O)c2ccccc21 (stereo not drawn)
TGI [1]: > 100 µM | TGI [2]: > 100 µM | TGI [3]: > 100 µM | TGI [4]: > 100 µM | TGI [5]: > 100 µM | TGI [6]: > 100 µM | TGI [7]: > 100 µM | TGI [8]: > 100 µM | TGI [9]: > 100 µM | TGI [10]: > 100 µM | TGI [11]: > 100 µM | TGI [12]: > 100 µM | TGI [13]: > 100 µM | TGI [14]: > 100 µM | TGI [15]: > 100 µM | TGI [16]: > 100 µM | TGI [17]: > 100 µM | TGI [18]: > 100 µM | TGI [19]: > 100 µM | TGI [20]: > 100 µM | TGI [21]: > 100 µM | TGI [22]: > 100 µM | TGI [23]: > 100 µM | TGI [24]: > 100 µM | TGI [25]: > 100 µM | TGI [26]: > 100 µM | TGI [27]: > 100 µM | TGI [28]: > 100 µM | TGI [29]: > 100 µM | TGI [30]: > 100 µM | TGI [31]: > 100 µM | TGI [32]: > 100 µM | TGI [33]: > 100 µM | TGI [34]: > 100 µM | TGI [35]: > 100 µM | TGI [36]: > 100 µM | TGI [37]: > 100 µM | TGI [38]: > 100 µM | TGI [39]: > 100 µM | TGI [40]: > 100 µM | TGI [41]: > 100 µM | TGI [42]: > 100 µM | TGI [43]: > 100 µM | TGI [44]: > 100 µM | TGI [45]: > 100 µM | TGI [46]: > 100 µM | TGI [47]: > 100 µM | TGI [48]: > 100 µM | TGI [49]: > 100 µM | TGI [50]: > 100 µM | TGI [51]: > 100 µM | TGI [52]: > 100 µM | TGI [53]: > 100 µM | TGI [54]: > 100 µM | TGI [55]: > 100 µM | TGI [56]: > 100 µM | TGI [57]: > 100 µM

CCCCCC[n+]1noc(N)c1-c1ccc(-c2c(N)on[n+]2CCCCCC)cc1
GI50 [1]: 2.62 µg/mL | TGI [1]: 14.9 µg/mL | GI50 [2]: 2.32 µg/mL | TGI [2]: 6.14 µg/mL | GI50 [3]: 2.81 µg/mL | TGI [3]: 8.51 µg/mL | GI50 [4]: 1.61 µg/mL | TGI [4]: 3.1 µg/mL | GI50 [5]: 1.77 µg/mL | TGI [5]: 3.42 µg/mL | GI50 [6]: 1.89 µg/mL | TGI [6]: 4.87 µg/mL | GI50 [7]: 12.5 µg/mL | TGI [7]: 25.6 µg/mL | GI50 [8]: 1.81 µg/mL | TGI [8]: 3.33 µg/mL | GI50 [9]: 1.98 µg/mL | TGI [9]: 4.71 µg/mL | GI50 [10]: 1.94 µg/mL | TGI [10]: 3.51 µg/mL | GI50 [58]: 7.71 µg/mL | TGI [58]: 23.2 µg/mL | GI50 [11]: 1.69 µg/mL | TGI [11]: 3.13 µg/mL | GI50 [12]: 1.66 µg/mL | TGI [12]: 3.04 µg/mL | GI50 [13]: 3.46 µg/mL | TGI [13]: 16.8 µg/mL | GI50 [14]: 1.66 µg/mL | TGI [14]: 3.58 µg/mL | GI50 [15]: 1.97 µg/mL | TGI [15]: 4.1 µg/mL | GI50 [16]: 6.03 µg/mL | TGI [16]: 16 µg/mL | GI50 [17]: 2.49 µg/mL | TGI [17]: 6.28 µg/mL | GI50 [18]: 1.95 µg/mL | TGI [18]: 4.21 µg/mL | GI50 [19]: 1.88 µg/mL | TGI [19]: 3.73 µg/mL | GI50 [20]: 2.59 µg/mL | TGI [20]: 8.72 µg/mL | GI50 [21]: 7.82 µg/mL | TGI [21]: 22.4 µg/mL | GI50 [22]: 3.97 µg/mL | TGI [22]: 14.6 µg/mL | GI50 [23]: 3.97 µg/mL | TGI [23]: 14.3 µg/mL | GI50 [24]: 1.71 µg/mL | TGI [24]: 3.47 µg/mL | GI50 [25]: 1.61 µg/mL | TGI [25]: 3.07 µg/mL | GI50 [26]: 3.83 µg/mL | TGI [26]: 14 µg/mL | GI50 [27]: 12.7 µg/mL | TGI [27]: 26.1 µg/mL | GI50 [28]: 1.79 µg/mL | TGI [28]: 3.8 µg/mL | GI50 [29]: 1.89 µg/mL | TGI [29]: 4.46 µg/mL | GI50 [30]: 6.2 µg/mL | TGI [30]: 17.3 µg/mL | GI50 [31]: 5.09 µg/mL | TGI [31]: 10.1 µg/mL | GI50 [32]: 1.61 µg/mL | TGI [32]: 3.32 µg/mL | GI50 [33]: 1.76 µg/mL | TGI [33]: 3.23 µg/mL | GI50 [34]: 6.74 µg/mL | TGI [34]: 20.4 µg/mL | GI50 [35]: 1.73 µg/mL | TGI [35]: 3.34 µg/mL | GI50 [36]: 14.2 µg/mL | TGI [36]: 28.2 µg/mL | GI50 [37]: 1.85 µg/mL | TGI [37]: 4.01 µg/mL | GI50 [38]: 3.37 µg/mL | TGI [38]: 11 µg/mL | GI50 [39]: 3.3 µg/mL | TGI [39]: 9.87 µg/mL | GI50 [40]: 5.25 µg/mL | TGI [40]: 13.9 µg/mL | GI50 [41]: 9.62 µg/mL | TGI [41]: 22.8 µg/mL | GI50 [42]: 1.9 µg/mL | TGI [42]: 3.43 µg/mL | GI50 [43]: 2.6 µg/mL | TGI [43]: 9.53 µg/mL | GI50 [44]: 9.82 µg/mL | TGI [44]: 24.4 µg/mL | GI50 [45]: 2.03 µg/mL | TGI [45]: 4.7 µg/mL | GI50 [46]: 7.64 µg/mL | TGI [46]: 20.6 µg/mL | GI50 [59]: 2.36 µg/mL | TGI [59]: 7.33 µg/mL | GI50 [47]: 1.09 µg/mL | TGI [47]: 5.91 µg/mL | GI50 [48]: 1.99 µg/mL | TGI [48]: 3.69 µg/mL | GI50 [50]: 3.41 µg/mL | TGI [50]: 11.3 µg/mL | GI50 [51]: 1.45 µg/mL | TGI [51]: 2.79 µg/mL | GI50 [52]: 5.54 µg/mL | TGI [52]: 14.6 µg/mL | GI50 [53]: 2.13 µg/mL | TGI [53]: 5.06 µg/mL | GI50 [54]: 7.74 µg/mL | TGI [54]: 20.7 µg/mL | GI50 [55]: 2.18 µg/mL | TGI [55]: 5.22 µg/mL | GI50 [56]: 1.78 µg/mL | TGI [56]: 3.48 µg/mL | GI50 [57]: 14.1 µg/mL | TGI [57]: 27.9 µg/mL
